In assay [1] the target is Mothers against decapentaplegic homolog 2 (Homo sapiens, UniProt Q15796). Nature of the assay: Inhibition of SMAD2 (unknown origin).
The nature of assay [2]: Inhibition of MPC (unknown origin). Further details: species or system Homo sapiens.

Chain of Mothers against decapentaplegic homolog 2 (Q15796 whole entry): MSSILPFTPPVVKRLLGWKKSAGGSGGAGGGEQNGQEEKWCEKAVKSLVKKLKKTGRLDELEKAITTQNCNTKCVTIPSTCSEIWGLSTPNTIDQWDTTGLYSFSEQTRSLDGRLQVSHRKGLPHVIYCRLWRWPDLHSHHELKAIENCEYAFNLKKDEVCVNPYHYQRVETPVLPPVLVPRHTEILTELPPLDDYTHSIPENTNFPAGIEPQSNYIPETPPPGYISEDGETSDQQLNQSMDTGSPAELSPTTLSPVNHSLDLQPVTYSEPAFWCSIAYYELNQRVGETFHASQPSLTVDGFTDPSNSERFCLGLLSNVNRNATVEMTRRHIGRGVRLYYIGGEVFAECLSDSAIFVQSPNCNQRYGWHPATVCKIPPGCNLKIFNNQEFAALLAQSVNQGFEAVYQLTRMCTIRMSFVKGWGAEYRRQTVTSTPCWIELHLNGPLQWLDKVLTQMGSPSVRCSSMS

As a reminder, the IC50 is the concentration needed to halve the response being measured. Higher therefore signals weaker potency. In the case of `Cc1csc(-c2nc[nH]c2-c2ccc3ncsc3c2)n1`, in assay [1], it took 8.7 nM to reach half-maximal inhibition (IC50).

As for `N#C/C(=C\c1cn(-c2ccccc2)c2ccccc12)C(=O)O`, in assay [2], inhibition was half-maximal at 16.6 nM (IC50).
